Tested on: human breast cancer-cell line
Assay: Flow cytometry with fluorescent labeled-lectin of modified cells (Examples 8-10)
Type: cell-based
Details: 25 mg, PBS, 3 h at 37° C.
Description: α-Gal epitope-cyclic carbamate 6 (disaccharide) (25 mg) and human breast cancer-cell line 7 (2×10^6 number cell) were mixed in PBS buffer (5 mL) (see FIG. 3). The mixture was kept for 3 h at 37° C., and then the mixture was subjected to centrifugation to separate the cells from the medium.
α-Gal epitope-carbamate 6 (disaccharide) (25 mg) and human breast cancer-cell line 7 (1×10^6 number cell) were mixed in PBS buffer (5 mL) (see FIG. 3). The mixture was kept for 3 h at 37° C., and then the mixture was subjected to centrifugation to separate the cells from the medium.
α-Gal epitope-carbamate 6 (disaccharide) (25 mg) and human breast cancer-cell line 7 (5×10^5 number cell) were mixed in PBS buffer (5 mL) (see FIG. 3). The mixture was kept for 3 h at 37° C., and then the mixture was subjected to centrifugation to separate the cells from the medium.

Measured: Modification of cells shown with fluorescent labeled-lectin

O=C1NC2OC(CO)C(O)C(OC3OC(CO)C(O)C(O)C3O)C2O1 (stereo not drawn) [Compound 6, α-Gal epitope-cyclic carbamate]
modification has been proven: 1×10^6 cells | 2×10^6 cells | 5×10^5 cells
